Publication PMC4331368, “HZ08 Reverse P-Glycoprotein Mediated Multidrug Resistance In Vitro and In Vivo” (PLoS ONE, 2015)
Values joined by “and” are separate entries in the source; they are usually repeats but may differ in a detail not shown here. Identical values can stand only once.

Experiments:
KB-VCR cells = assay: Cell cytotoxicity assay (CCK-8), KB-VCR; assay type: cell-based, human; settings: for IC50: Homo sapiens, 72 h; for IC50 / FR (fold-resistance): chemotherapeutic alone
Procedure: (§1) Briefly, cells (2,000/well) were seeded in 96-well plate and cultured at 37°C in 5% CO2 for 24h. […] After 72 h of treatment, 15μL Cell Counting Kit-8 solution was added to each well followed by another 2 h of incubation. The absorbance at 450nm and 600nm were then measured using a SpectraMax M5 microplate reader. The curves of growth inhibition rate were fitted with GraphPad Prism 5 and the IC50 values were calculated. Each assay was conducted three times in quadruplicate

KB-WT cells = assay: Cell cytotoxicity assay (CCK-8), KB-WT; assay type: cell-based, human; settings: for IC50: Homo sapiens
Procedure: as §1

KB-WT xenografts = assay: KB-WT tumor xenograft model; assay type: in vivo, Balb/c nude mice; settings: day 21, mean±SEM
Description: (§2) All the animal experiments were approved by the Institutional Animal Care and Use Committee at China Pharmaceutical University (Permit Number: CPU1201P) and carried out in strict accordance with the recommendations in the Guide for the Care and Use of Laboratory Animals of AAALAC international. Animals were acclimated for 5 days prior to study initiation. […] If any animal was moribund due to treatment associated toxicity or tumor over-growth (≥ 2000 mm^3) before scheduled sacrifice, it would be euthanized. At the endpoint, the animals were euthanized by using CO2 and all efforts were made to minimize suffering.
(§3) Body weight and the tumor growth were monitored twice a week. Tumor size was measured to the nearest 0.1 mm using vernier caliper and applying the formula: Tumor volume = length × width^2 × 0.5. Efficacy data was graphically represented as the mean tumor volume ± standard error of the mean (SEM). Tumors were collected for further analysis after last measurement.

KB-VCR xenografts = assay: KB-VCR tumor xenograft model; assay type: in vivo, Balb/c nude mice; settings: for tumor weight / mean tumor volume: day 21
Description: as §2, §3

P-gp [1] = molecular target: T1, P-gp (Homo sapiens, UniProt P08183); assay: MDCK-MDR1 monolayer transport assay; assay type: cell-based; settings: dog
T1 construct: expressed in transfected cells; host or cells: MDCK-MDR1 cells (canine kidney cells)
T1 sequence (P08183 whole entry): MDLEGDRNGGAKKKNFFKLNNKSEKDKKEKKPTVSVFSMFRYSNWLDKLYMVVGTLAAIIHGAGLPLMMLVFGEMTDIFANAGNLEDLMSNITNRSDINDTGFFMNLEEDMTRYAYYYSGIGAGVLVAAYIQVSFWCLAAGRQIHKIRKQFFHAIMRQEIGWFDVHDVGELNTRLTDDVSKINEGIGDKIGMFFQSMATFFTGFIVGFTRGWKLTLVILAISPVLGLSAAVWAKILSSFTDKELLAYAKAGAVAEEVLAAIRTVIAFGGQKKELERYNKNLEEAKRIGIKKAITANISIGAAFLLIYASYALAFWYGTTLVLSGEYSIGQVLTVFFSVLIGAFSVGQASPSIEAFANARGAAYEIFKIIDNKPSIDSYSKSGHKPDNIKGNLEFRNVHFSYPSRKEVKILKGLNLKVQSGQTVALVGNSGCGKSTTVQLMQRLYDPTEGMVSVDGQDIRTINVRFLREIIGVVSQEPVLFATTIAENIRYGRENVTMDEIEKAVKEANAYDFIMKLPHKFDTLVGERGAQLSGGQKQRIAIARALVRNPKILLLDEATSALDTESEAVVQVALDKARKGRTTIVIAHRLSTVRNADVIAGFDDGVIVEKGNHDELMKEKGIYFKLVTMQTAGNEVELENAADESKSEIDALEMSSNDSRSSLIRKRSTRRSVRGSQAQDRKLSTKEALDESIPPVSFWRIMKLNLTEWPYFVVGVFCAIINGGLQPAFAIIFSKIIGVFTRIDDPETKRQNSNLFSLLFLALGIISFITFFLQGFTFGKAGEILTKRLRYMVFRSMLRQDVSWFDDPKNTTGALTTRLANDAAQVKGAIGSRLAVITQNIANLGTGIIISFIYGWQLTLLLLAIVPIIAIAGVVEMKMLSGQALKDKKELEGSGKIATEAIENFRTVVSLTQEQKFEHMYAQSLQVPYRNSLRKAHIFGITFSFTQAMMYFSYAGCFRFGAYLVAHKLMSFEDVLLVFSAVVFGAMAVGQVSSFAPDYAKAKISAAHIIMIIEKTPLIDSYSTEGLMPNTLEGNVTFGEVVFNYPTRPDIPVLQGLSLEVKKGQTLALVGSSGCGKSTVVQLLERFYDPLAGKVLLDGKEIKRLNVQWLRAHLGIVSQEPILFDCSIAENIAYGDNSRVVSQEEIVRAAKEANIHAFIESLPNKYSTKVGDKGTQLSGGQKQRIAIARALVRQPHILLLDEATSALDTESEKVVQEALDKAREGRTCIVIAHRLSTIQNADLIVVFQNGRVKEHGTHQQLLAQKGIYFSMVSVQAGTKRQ
Procedure: MDCK-MDR1 cells could differentiate into columnar epithelium with tight junctions in three days later to form cell monolayer. […] If a drug was a P-gp substrate, its permeation from apical side (A) to basal side (B) would be inhibited and reduced, while the permeation from B to A would not be affected. When a P-gp inhibitor was added, the permeation of P-gp substrate from A to B could be increased.
MDCK-MDR1 cells were cultured in Dulbecco's MEM (DMEM) Medium supplemented with 10% fetal bovine serum (FBS) and 2 mM L-glutamine. […] The plates were incubated at 37°C with 5% CO2/95% air for 4 days and subsequently used for assays. […] Plates were incubated for 90 min in 5% CO2/95% air, 37°C CO2 incubator with slowly shaking (60 rpm). Apical and basolateral compartments were sampled at the end of the transport experiment and the tested substance concentrations in both compartments were determined by LC-MS/MS.
The apparent permeability (Papp) and efflux ratio were calculated based on the equations reported previously.[33]

[2] = molecular target: T2, recombinant human ABCB1 membranes (Homo sapiens, UniProt P08183); assay: P-gp ATPase activity assay (Pgp-Glo, VER-stimulated); assay type: biochemical
T2 construct: purchased
T2 sequence (P08183 whole entry): as above
Description: Sodium orthovanadate (Na3VO4) was used as an ABCB1 ATPase inhibitor. […] Luminescence was initiated by ATP detection buffer.

P-gp [3] = molecular target: T1, P-gp; assay: Calcein-AM P-gp inhibition assay in MDCK-MDR1 cells; assay type: cell-based; settings: 2μM GF120918 = 100%
Procedure: The calcein-AM assay was optimized from previous studies.[28, 29] MDCK-MDR1 cells were cultured as described above. Cells were seeded at 8,000 cells/well (100μl of culture medium) in 96-well flat clear bottom black polystyrene plates. The medium was changed 24h after seeding and the assay was performed 48 h later. On the day of study, the medium was removed and plates were washed three times with phosphate-buffered saline (PBS). Test compounds at various concentrations were added to plates in 50μl of transport buffer containing 0.5% DMSO as solvent. Plates were incubated at 37°C for 30 min. Calcein-AM was added in 50μl of PBS to yield a final concentration of 10μM.
P-gp inhibition was calculated as described previously.[29] The curves of inhibition rates were fitted with GraphPad Prism 5 and the IC50 values were calculated. Each assay was conducted three times in quadruplicate.

[4] = KB-WT, chemotherapeutic alone, 72 h
[5] = 2 mg/kg modulator + VCR 2 mg/kg
[6] = 5 mg/kg modulator + VCR 2 mg/kg

`COc1ccc(CCN(C)CCCC(C#N)(c2ccc(OC)c(OC)c2)C(C)C)cc1OC` (stereo not shown) [VER, verapamil] was tested, and the “FR of DOX” value (KB-VCR cells; DOX + 10 μM modulator) was 3.21, the “FR of PTX” value (KB-VCR cells; PTX + 10 μM modulator) was 20.6 and the “FR of VCR” value (KB-VCR cells; VCR + 10 μM modulator) was 82.74. The “FR of DOX” value (KB-WT cells; KB-WT, DOX + 10 μM modulator) was 1.27, the “FR of PTX” value (KB-WT cells; KB-WT, PTX + 10 μM modulator) was 2.03 and the “FR of VCR” value (KB-WT cells; KB-WT, VCR + 10 μM modulator) was 1.83.
With `CC[C@]1(O)C[C@H]2CN(CCc3c([nH]c4ccccc34)[C@@](C(=O)OC)(c3cc4c(cc3OC)N(C=O)[C@H]3[C@@](O)(C(=O)OC)[C@H](OC(C)=O)[C@]5(CC)C=CCN6CC[C@]43[C@@H]65)C2)C1` [VCR, Vincristine] the IC50 (KB-VCR cells) was 619 ± 158 nM, the IC50 (KB-WT cells) was ~1.5 nM and the IC50 (KB-WT cells; [4]) was 1.5 ± 0.2 nM. It also gave a mean tumor volume (KB-WT xenografts; VCR 2 mg/kg weekly i.v. alone) of 1206.41±132.53 mm^3, a tumor weight (KB-VCR xenografts; VCR 2 mg/kg alone) of 1.623 ± 0.233 g and a mean tumor volume (KB-VCR xenografts; VCR 2 mg/kg weekly i.v. alone) of 2009.99±24.57 mm^3. It also gave a Papp A→B at 90 min, 1 μM (P-gp [1]) of 0.32 ± 0.1 ×10⁻⁶ cm/s and a Papp B→A at 90 min, 1 μM (P-gp [1]) of 1.99 ± 0.28 ×10⁻⁶ cm/s.
`COc1cccc2c1C(=O)c1c(O)c3c(c(O)c1C2=O)C[C@@](O)(C(=O)CO)C[C@@H]3O[C@H]1C[C@H](N)[C@H](O)[C@H](C)O1` [DOX, Doxorubicin] was tested, and the IC50 (KB-VCR cells) was 245 ± 39.8 nM, the “FR (fold-resistance)” value (KB-VCR cells) was 1.00 and the IC50 (KB-WT cells; [4]) was 47.3 ± 19.7 nM. For the same compound, the “FR (fold-resistance)” value (KB-WT cells; KB-WT, chemotherapeutic alone) was 1.00.
`CCCCCCCCNC(=NC#N)N1CCc2cc(OC)c(OC)cc2C1Cc1ccc(OC)c(OC)c1` (stereo not shown) [HZ08] was tested, and the ATP consumed ([2]; VER 100μM + HZ08 0.625μM) was 74.09±4.02 pmol ATP consumed/ μg P-gp / min, the Fold stimulation ([2]; VER 100μM + HZ08 0.625μM) was 4.31 and the ATP consumed ([2]; VER 100μM + HZ08 1.25μM) was 73.10±1.34 pmol ATP consumed/ μg P-gp / min. The Fold stimulation ([2]; VER 100μM + HZ08 1.25μM) was 4.26, the ATP consumed ([2]; VER 100μM + HZ08 5μM) was 66.82±0.87 pmol ATP consumed/ μg P-gp / min and the Fold stimulation ([2]; VER 100μM + HZ08 5μM) was 3.89. The ATP consumed ([2]; VER 100μM + HZ08 10μM) was 63.11±1.71 pmol ATP consumed/ μg P-gp / min, the Fold stimulation ([2]; VER 100μM + HZ08 10μM) was 3.67 and the ATP consumed ([2]; VER 100μM + HZ08 20μM) was 55.21±0.43 pmol ATP consumed/ μg P-gp / min. The Fold stimulation ([2]; VER 100μM + HZ08 20μM) was 3.21, the ATP consumed ([2]; VER 100μM + HZ08 40μM) was 41.25±3.00 pmol ATP consumed/ μg P-gp / min and the Fold stimulation ([2]; VER 100μM + HZ08 40μM) was 2.40. For the same compound, the ATP consumed ([2]; VER 100μM + HZ08 80μM) was 34.48±1.56 pmol ATP consumed/ μg P-gp / min, the Fold stimulation ([2]; VER 100μM + HZ08 80μM) was 2.01 and the ATP consumed ([2]; VER 100μM + HZ08 […]) was 69.42±1.31 pmol ATP consumed/ μg P-gp / min. The Fold stimulation ([2]; VER 100μM + HZ08 […]) was 4.04, the “cytotoxicity as single agent” value (KB-VCR cells; CCK-8, concentrations up to 20μM) was “no cytotoxicity” and the “FR of DOX” value (KB-VCR cells; DOX + 5 μM modulator) was 3.84. The “FR of DOX” value (KB-VCR cells; DOX + 10 μM modulator) was 4.78, the “FR of PTX” value (KB-VCR cells; PTX + 5 μM modulator) was 120.06 and the “FR of PTX” value (KB-VCR cells; PTX + 10 μM modulator) was 131.04. The “FR of VCR” value (KB-VCR cells; VCR + 5 μM modulator) was 173.46, the “FR of VCR” value (KB-VCR cells; VCR + 10 μM modulator) was 246.35 and the IC50 (P-gp [3]) was ~2440 nM and 2440 nM. The “cytotoxicity as single agent” value (KB-WT cells; KB-WT, CCK-8, concentrations up to 20μM) was “no cytotoxicity”, the “FR of DOX” value (KB-WT cells; KB-WT, DOX + 5 μM modulator) was 0.83 and the “FR of DOX” value (KB-WT cells; KB-WT, DOX + 10 μM modulator) was 1.19. The “FR of PTX” value (KB-WT cells; KB-WT, PTX + 5 μM modulator) was 1.97, the “FR of PTX” value (KB-WT cells; KB-WT, PTX + 10 μM modulator) was 2.68 and the “FR of VCR” value (KB-WT cells; KB-WT, VCR + 5 μM modulator) was 1.65. The “FR of VCR” value (KB-WT cells; KB-WT, VCR + 10 μM modulator) was 3.67, the mean tumor volume (KB-WT xenografts; [5]) was 1193.11±84.95 mm^3 and the tumor weight (KB-WT xenografts; [5]) was 1.050 ± 0.080 g. The mean tumor volume (KB-WT xenografts; [6]) was 872.92±301.72 mm^3, the tumor weight (KB-WT xenografts; [6]) was 0.845 ± 0.183 g and the mean tumor volume (KB-VCR xenografts; [5]) was 1536.36±190.04 mm^3. For the same compound, the tumor weight (KB-VCR xenografts; [5]) was 1.222 ± 0.200 g, the “tumor inhibition (tumor volume)” value (KB-VCR xenografts; 5 mg/kg modulator + VCR 2 mg/kg, compared with 2 mg/kg) was “a higher tumor inhibition was observed” and the tumor weight (KB-VCR xenografts; [6]) was 0.954 ± 0.175 g.
`CC(=O)O[C@H]1C(=O)[C@@]2(C)[C@H]([C@H](OC(=O)c3ccccc3)[C@]3(O)C[C@H](OC(=O)[C@H](O)[C@@H](NC(=O)c4ccccc4)c4ccccc4)C(C)=C1C3(C)C)[C@]1(OC(C)=O)CO[C@@H]1C[C@@H]2O` [PTX, paclitaxel] was tested, and the IC50 (KB-VCR cells) was 194 ± 17.7 nM, the “FR (fold-resistance)” value (KB-VCR cells) was 1.00 and the IC50 (KB-WT cells; [4]) was 3.7 ± 0.9 nM. For the same compound, the “FR (fold-resistance)” value (KB-WT cells; KB-WT, chemotherapeutic alone) was 1.00.
